Measured values reported in US20110318375A1, “Immunomodulatory Therapeutic Agents” (priority 2009, published 2011).

What was measured:
[1] = tested on: Ponto Toro Virus; format: in vivo, mice; conditions: Ponto Toro infection, one dose; placebo group 25% survived
[2] = tested on: Cytokine 12 Panel; test: Cytokine 12 panel, oral daily dosing with 3 mg Fibrinopeptide A (Table 5); format: in vivo, human; set-up: IL-10 / TNF-α / IL-2 / IL-12: unit not given here; conditions: for IFN-γ / IL-4 / IL-5 / IL-6 / IL-8 / IL-13: nl: 0-5; for IL-12: nl: 0-6; for IL-2: nl: 0-12; for IL-10: nl: 0-18; for TNF-α: nl: 0-22; for IL-1β: nl: 0-36; for IL-2R: nl: 0-1033
Text: [table] […] One of these patients was the same patient previously utilized, while the other was relatively neve to any previous Fibrinopeptide A treatment. The patient had taken two doses orally approximately seven weeks prior to this treatment, no lab work had been obtained with this prior dosing. […] Note the response in the IL-10 and IL-1b in this patient similar to the other patients. However, this patient return back toward baseline values much more rapidly than the other patients, accentuating the variability expected in this type of response from one patient to another. This also validates the efficacy of oral administration to achieve an anti-inflammatory/immunomodulatory benefit.

[3] = tested on: Experimental Allergic Encephalomyelitis (EAE); test: Acute Experimental Allergic Encephalomyelitis mouse model; format: in vivo, mice; conditions: daily, subcutaneous; recovery after day 22, worsened on days 27 and 28; p<0.1
Text: The carboxy terminus of activated Fibrinopeptide A was considered to be the active portion of the peptide, the carboxy terminus was PEGylate (addition of Poly Ethylene Glycol). This molecule was used to perform an EAE study. This study was designed to mimic the study done by Ruhenstroth-Bauer in 1981 utilizing two of these peptides, and showing some albeit mild benefit. The synthetic PEGylated peptide was expected to perform considerably better than the non-PEGylated peptide. Synthetic non-PEGylated peptide A was used as a positive control to compare the PEGylated verses non-PEGylated peptides. The medications were administered subcutaneously, due to this route having some efficacy in the cytokine profiles.
Test article 2 (PEGylated peptide) dosed daily, every 3 days and weekly never even approached statistically significant benefit.
During the first 22 days of the study EAE development in mice treated with test article 1 (daily non-PEGylated peptide A) was very similar to the vehicle-treated mice. […] Disease worsened in test article 1-treated mice on days 27 and 28 and became very similar to disease severity to the mice in the vehicle-treated group.

[4] = tested on: Cytokine 12 Panel; test: Cytokine 12 panel after oral peptide preparation taken daily for two weeks; format: in vivo, human; conditions: Pre: prior to the IV dose, 4 weeks after oral dosing
Text: Peptide was suspended in an appropriate medium and a healthy volunteer took the preparation daily for two weeks, drawing blood for a cytokine 12 panel every five days. Due to the size of the molecules absorption from the mucosal route seemed unlikely, and the rapid digestion of peptides in the stomach would eliminate their efficacy in a true oral route. This same healthy volunteer had lab work drawn right before receiving an IV dose of synthetic Fibrinopeptide A. The IV dose was expected to have a more profound therapeutic effect, since treatment was simulating a normal intravascular biologic process. […] (Table 3). [table]

[5] = tested on: mouse antibody IgE; conditions: cited from earlier work

ADSGEGDFLAEGGGV (listed as Homo sapiens) [Fibrinopeptide A]
mice that lived (overall survivability) [1]: 60% | IFN-γ ([2]; Off 1 Week): 5 | IL-4 ([2]; Off 1 Week): <5 | IL-5 ([2]; Off 1 Week): 5 | IL-6 ([2]; Off 1 Week): 5 | IL-8 ([2]; Off 1 Week): 8 | IL-13 ([2]; Off 1 Week): 8 | IL-12 ([2]; Off 1 Week): 6 | IL-2 ([2]; Off 1 Week): 6 | IL-10 ([2]; Off 1 Week): 28 | TNF-α ([2]; Off 1 Week): <5 | IL-1β ([2]; Off 1 Week): <5 | IL-2R ([2]; Off 1 Week): 147 | elevation of Interleukin-13 ([2]; giving just Fibrinopeptide A): does not result in an elevation | IFN-γ ([2]; oral daily 3 mg, 1 Week): <5 | IL-4 ([2]; oral daily 3 mg, 1 Week): <5 | IL-5 ([2]; oral daily 3 mg, 1 Week): <5 | IL-6 ([2]; oral daily 3 mg, 1 Week): <5 | IL-8 ([2]; oral daily 3 mg, 1 Week): <5 | IL-13 ([2]; oral daily 3 mg, 1 Week): <5 | IL-12 ([2]; oral daily 3 mg, 1 Week): <5 | IL-2 ([2]; oral daily 3 mg, 1 Week): <5 | IL-10 ([2]; oral daily 3 mg, 1 Week): 137 | TNF-α ([2]; oral daily 3 mg, 1 Week): <5 | IL-1β ([2]; oral daily 3 mg, 1 Week): 30 | IL-2R ([2]; oral daily 3 mg, 1 Week): 423 | difference in disease severity versus vehicle-treated mice [3]: did not reach statistical significance | IFN-γ ([4]; nl: 0-5): <5 | IL-4 ([4]; nl: 0-5): <5 | IL-5 ([4]; nl: 0-5): <5 | IL-6 ([4]; nl: 0-5): 13 | IL-8 ([4]; nl: 0-5): <5 | IL-12 ([4]; nl: 0-6): <5 | IL-2 ([4]; nl: 0-12): <5 | IL-10 ([4]; nl: 0-18): 96 | TNF-α ([4]; nl: 0-22): <5 | IL-1β ([4]; nl: 0-36): 52 | IL-2R ([4]; nl: 0-1033): 550 | deglycosylation of IgE [5]: deglycosylates mouse antibody IgE
